Data: ChEMBL document CHEMBL1129323, “Comparative molecular moment analysis (CoMMA): 3D-QSAR without molecular superposition” (J Med Chem, 1996)

Legend:
[1] = molecular target: T1, Corticosteroid-binding globulin (Homo sapiens) (UniProt P08185)
T1 sequence (whole entry): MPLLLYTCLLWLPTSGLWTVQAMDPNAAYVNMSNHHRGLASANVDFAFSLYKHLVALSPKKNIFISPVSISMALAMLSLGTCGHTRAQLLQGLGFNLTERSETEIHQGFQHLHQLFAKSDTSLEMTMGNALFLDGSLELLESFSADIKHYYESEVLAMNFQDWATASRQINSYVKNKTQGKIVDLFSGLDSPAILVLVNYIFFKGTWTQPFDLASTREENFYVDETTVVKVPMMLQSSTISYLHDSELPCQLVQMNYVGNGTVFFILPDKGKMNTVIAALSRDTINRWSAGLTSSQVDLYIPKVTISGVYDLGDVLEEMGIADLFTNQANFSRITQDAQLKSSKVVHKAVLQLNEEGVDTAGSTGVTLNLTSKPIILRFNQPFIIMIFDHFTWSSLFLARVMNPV
Description: Binding affinity for corticosteroid binding globulin is expressed as log(1/k)

[2] = Hammett constant was evaluated; assay type: ADME
[3] = molecular target: T2, Sex hormone-binding globulin (Homo sapiens) (UniProt P04278)
T2 sequence (whole entry): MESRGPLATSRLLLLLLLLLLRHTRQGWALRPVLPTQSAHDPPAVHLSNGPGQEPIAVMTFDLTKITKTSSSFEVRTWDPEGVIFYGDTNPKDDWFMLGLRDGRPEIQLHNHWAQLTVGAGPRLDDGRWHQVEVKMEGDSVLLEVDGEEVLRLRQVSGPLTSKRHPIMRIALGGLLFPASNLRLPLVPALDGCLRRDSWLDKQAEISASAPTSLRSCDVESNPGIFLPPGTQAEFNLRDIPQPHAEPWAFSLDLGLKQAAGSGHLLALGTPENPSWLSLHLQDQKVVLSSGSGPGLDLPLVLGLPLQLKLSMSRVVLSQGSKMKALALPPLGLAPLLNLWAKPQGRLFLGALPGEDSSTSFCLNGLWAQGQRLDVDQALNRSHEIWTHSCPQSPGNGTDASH
Description: Binding affinity towards testosterone binding globulin is expressed as log(1/k).

| Compound | Log 1/K [1] | Hammett constant [2] | Log 1/K [3] |
| --- | --- | --- | --- |
| C[C@@H]1C[C@@]2(C)C(=CC1=O)CC[C@H]1[C@@H]3CC[C@](O)(C(=O)CO)[C@@]3(C)C[C@H](O)[C@@]12F | 5.8 |  |  |
| O=C(O)c1ccc(C(F)(F)C(F)(F)F)cc1 |  | 0.52 |  |
| CC(=O)[C@@]1(O)CC[C@H]2[C@@H]3CCC4=CC(=O)CC[C@]4(C)[C@H]3CC[C@@]21C | 7.74 |  | 7 |
| CS(=O)(=O)c1ccc(C(=O)O)cc1 |  | 0.72 |  |
| O=C(O)c1ccc([N+](=O)[O-])cc1 [4-NITROBENZOIC ACID] |  | 0.78 |  |
| N#Cc1cccc(C(=O)O)c1 |  | 0.56 |  |
| COc1ccc(C(=O)O)cc1 [p-ANISIC ACID] |  | -0.27 |  |
| O=C(O)c1cccc(Br)c1 |  | 0.39 |  |
| C[C@]12C=CC(=O)C=C1CC[C@@H]1[C@@H]2[C@@H](O)C[C@@]2(C)[C@H]1CC[C@]2(O)C(=O)CO | 7.51 |  |  |
| O=C(O)c1ccc(CCl)cc1 |  | 0.12 |  |
| CC(=O)[C@@]1(C)CCC2C3CCC4=CC(=O)CC[C@]4(C)C3CC[C@@]21C (some centres not stated) | 7.12 |  |  |
| O=C(O)c1ccc(CBr)cc1 |  | 0.14 |  |
| CC(=O)[C@H]1CC[C@H]2[C@@H]3CCC4=CC(=O)CC[C@@H]4[C@H]3CC[C@]12C | 6.82 |  |  |
| O=C(O)c1cccc(F)c1 |  | 0.34 |  |
| Cc1ccc(C(=O)O)cc1 [4-METHYLBENZOIC ACID] |  | -0.17 |  |
| CSc1cccc(C(=O)O)c1 |  | 0.15 |  |
| O=C(O)c1ccc(S)cc1 |  | 0.15 |  |
| C[C@]12C[C@@H](O)[C@H]3[C@@H](CCC4=CC(=O)CC[C@@]43C)[C@@H]1CC[C@@H]2C(=O)CO | 7.2 |  |  |
| O=C(O)c1cccc(OC(F)(F)F)c1 |  | 0.38 |  |
| Cc1cccc(C(=O)O)c1 |  | -0.07 |  |
| O=C(O)c1cccc(S(=O)(=O)F)c1 |  | 0.8 |  |
| C[C@]12CC[C@H](O)CC1=CC[C@@H]1[C@@H]2CC[C@]2(C)C(=O)CC[C@@H]12 | 5 |  | 7.82 |
| O=C(O)c1ccc(O)cc1 [PARABEN] |  | -0.37 |  |
| O=C(O)c1ccc(C(F)(F)F)cc1 |  | 0.54 |  |

| Compound | Log 1/K [1] | Hammett constant [2] | Log 1/K [3] |
| --- | --- | --- | --- |
| Nc1ccc(C(=O)O)cc1 [AMINOBENZOIC ACID] |  | -0.66 |  |
| CSc1ccc(C(=O)O)cc1 |  | 0 |  |
| O=C(O)c1cccc(S)c1 |  | 0.25 |  |
| O=C(O)c1ccccc1 [BENZOIC ACID] |  | 0 |  |
| O=C(O)c1cccc(C(F)(F)F)c1 |  | 0.43 |  |
| O=C(O)c1cccc(SC(F)(F)F)c1 |  | 0.4 |  |
| Nc1cccc(C(=O)O)c1 [3-AMINOBENZOIC ACID] |  | -0.16 |  |
| CC(=O)[C@@]1(O)CC[C@H]2[C@@H]3CC=C4C[C@@H](O)CC[C@]4(C)[C@H]3CC[C@@]21C | 5 |  | 6.36 |
| CC(=O)OCC(=O)[C@@]1(O)CCC2C3CCC4=CC(=O)CC[C@]4(C)C3C(O)C[C@@]21C (some centres not stated) | 7.55 |  |  |
| C[C@]12CCC(=O)C=C1CC[C@@H]1[C@@H]2C(=O)C[C@@]2(C)[C@H]1CC[C@]2(O)C(=O)CO | 6.89 |  | 6.43 |
| CC(=O)[C@H]1CC[C@H]2[C@@H]3CCC4=CC(=O)CC[C@]4(C)[C@H]3C(=O)C[C@]12C | 6.78 |  |  |
| C[C@]12CCC(=O)C=C1CC[C@@H]1[C@@H]2CC[C@]2(C)C(=O)CC[C@@H]12 | 5.76 |  | 7.46 |
| O=C(O)c1cccc(CCl)c1 |  | 0.11 |  |
| C[C@]12CC[C@H]3[C@@H](CCC4=CC(=O)CC[C@@]43C)[C@@H]1CC[C@@H]2O | 6.72 |  | 9.2 |
| CC(=O)[C@@]1(O)[C@H](O)C[C@H]2[C@@H]3CCC4=CC(=O)CC[C@]4(C)[C@H]3CC[C@@]21C | 6.25 |  |  |
| O=C(O)c1cccc(I)c1 |  | 0.35 |  |
| O=C(O)c1ccc(CI)cc1 |  | 0.11 |  |
| C[C@]12CC[C@H](O)C[C@@H]1CC[C@@H]1[C@@H]2CC[C@]2(C)[C@@H](O)CC[C@@H]12 | 5 |  | 9.11 |
| C[C@]12CCC(=O)C=C1CC[C@@H]1[C@@H]2[C@@H](O)C[C@@]2(C)[C@H]1CC[C@]2(O)C(=O)CO | 7.88 |  | 6.2 |
| CC(=O)[C@H]1CC[C@H]2[C@@H]3CC=C4C[C@@H](O)CC[C@]4(C)[C@H]3CC[C@]12C | 5.25 |  | 7.15 |
| C[C@]12CCC(=O)C=C1CC[C@@H]1[C@@H]2CC[C@@]2(C)[C@H]1CC[C@]2(O)C(=O)CO | 7.88 |  | 7.2 |
| O=C(O)c1ccc(S(=O)(=O)C(F)(F)F)cc1 |  | 0.93 |  |
| N#Cc1ccc(C(=O)O)cc1 |  | 0.66 |  |
| C[C@]12CC[C@@H]3c4ccc(O)cc4CC[C@H]3[C@@H]1C[C@@H](O)[C@@H]2O | 5 |  | 6.63 |

| Compound | Log 1/K [1] | Hammett constant [2] | Log 1/K [3] |
| --- | --- | --- | --- |
| CS(=O)(=O)c1cccc(C(=O)O)c1 |  | 0.6 |  |
| C[C@]12CCC(=O)C=C1CC[C@@H]1[C@@H]2[C@@H](O)C[C@]2(C=O)[C@@H](C(=O)CO)CC[C@@H]12 | 6.28 |  | 5.32 |
| O=C(O)c1cccc(CBr)c1 |  | 0.12 |  |
| O=C(O)c1ccc(SC(F)(F)F)cc1 |  | 0.5 |  |
| O=C(O)c1cccc(O)c1 [3-HYDROXYBENZOIC ACID] |  | 0.12 |  |
| C[C@]12CC[C@H]3[C@@H](CCC4=CC(=O)CC[C@@H]43)[C@@H]1CC[C@@H]2O | 6.14 |  |  |
| O=C(O)c1cccc(C(F)(F)C(F)(F)F)c1 |  | 0.47 |  |
| CC(C)(C)c1cccc(C(=O)O)c1 |  | -0.1 |  |
| O=C(O)c1cccc(CI)c1 |  | 0.1 |  |
| O=C(O)c1cccc([N+](=O)[O-])c1 |  | 0.71 |  |
| COc1cccc(C(=O)O)c1 |  | 0.12 |  |
| CC(C)(C)c1ccc(C(=O)O)cc1 |  | -0.2 |  |
| O=C(O)c1ccc(F)cc1 |  | 0.06 |  |
| CCc1cccc(C(=O)O)c1 |  | -0.07 |  |
| O=C(O)c1ccc(S(=O)(=O)F)cc1 |  | 0.91 |  |
| O=C(O)c1cccc(Cl)c1 |  | 0.37 |  |
| O=C(O)c1ccc(OC(F)(F)F)cc1 |  | 0.35 |  |
| CC(=O)[C@H]1CC[C@H]2[C@@H]3CCC4=CC(=O)CC[C@]4(C)[C@H]3CC[C@]12C | 7.38 |  | 6.94 |
| CCc1ccc(C(=O)O)cc1 |  | -0.15 |  |
| O=C(O)c1ccc(I)cc1 |  | 0.18 |  |
| O=C(O)c1cccc(S(=O)(=O)C(F)(F)F)c1 |  | 0.79 |  |
| O=C(O)c1ccc(Br)cc1 |  | 0.23 |  |
| C[C@]12C[C@H](O)[C@H]3[C@@H](CCC4=CC(=O)CC[C@@]43C)[C@@H]1CC[C@@H]2C(=O)CO | 7.88 |  | 6.34 |
| C[C@]12CC[C@H]3[C@@H](CCC4=CC(=O)CC[C@@]43C)[C@@H]1CC[C@@H]2C(=O)CO | 7.65 |  | 7.38 |
